Earlier results in patent publication US20090069233A1, “Agonist Peptides of Basic Fibroblast Growth Factor (bFGF) and the Method of Reduction of Wrinkles on Skin, Darkening of Hair and Acceleration of Wound Healing” (priority 2005, published 2009).

How the values were obtained:
[1] = test system: depigmented skin patches of Yucatan swine; conditions: bFGF by interdermal injection
wounds of diabetic mice = conditions: wound healing experiments
[2] = test system: melanocytes obtained from the uninvolved areas of untreated vitiligo subjects; conditions: in vitro cell cultures
[3] = test system: depigmented ear lobes of Guinea pigs; conditions: bFGF by interdermal injection
artificial wound space = conditions: poly-vinyl alcohol sponge implant, histological and biochemical analysis

| Substance | repigmentation of depigmented skin patches [1] | side effects (wounds of diabetic mice) | correction of abnormalities of melanocytes [2] | repigmentation of depigmented ear lobes [3] | neo vascularisation, number of fibroblasts and deposition of collagen in the wound space (artificial wound space) |
| --- | --- | --- | --- | --- | --- |
| bFGF: Basic fibroblast growth factor, a potent mitogen for melanocytes, keratinocytes and fibroblasts | found effect | no side effects | corrects all the abnormalities of melanocytes | found effect | increase neo vasculatisation the number of fibroblasts and the deposition of collagen in the wound space |
| epidermal growth factor: other growth factor used as specificity control in repigmentation animal models (NSDSECPLSHDGYCLHDGVCMYIEALDKYACNCVVGYIGERCQYRDLKWWELR; UniProt P01133 971-1023, looked up) [reference compound] | did not have any effect | – | – | did not have any effect | – |
